The test deals with T1, ZmAKR4C13 (Zea mays, UniProt E9JVD4).
T1 construct: gene AR3; monomer
Put plainly: X-ray crystallography. It is filed as binding. Conditions: 5JGW 2.30 Å (P2_12_12_1); 5JGY 1.45 Å (P2_1), partial occupancy. The text has this:
X-ray crystallography on ZmAKR4C13 | b32; b72

T1 sequence (E9JVD4 1-319): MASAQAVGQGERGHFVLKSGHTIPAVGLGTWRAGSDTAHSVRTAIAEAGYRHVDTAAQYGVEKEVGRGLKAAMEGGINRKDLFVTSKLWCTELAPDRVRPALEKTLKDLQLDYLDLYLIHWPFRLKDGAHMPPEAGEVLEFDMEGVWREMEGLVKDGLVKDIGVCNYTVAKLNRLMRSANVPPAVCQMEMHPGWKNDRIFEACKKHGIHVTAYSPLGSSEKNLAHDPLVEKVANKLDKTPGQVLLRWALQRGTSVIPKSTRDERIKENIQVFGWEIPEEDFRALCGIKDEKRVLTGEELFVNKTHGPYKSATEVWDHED

As for `NC(=O)c1ccc[n+]([C@@H]2O[C@H](COP(=O)(O)OP(=O)(O)OC[C@H]3O[C@@H](n4cnc5c(N)ncnc54)[C@H](OP(=O)(O)O)[C@@H]3O)[C@@H](O)[C@H]2O)c1` [NADP+], the X-ray crystallography result is “b32; b72”.

The values are drawn from PMC12302338, “Functional genomics and structural insights into maize aldo-keto reductase-4 family: Stress metabolism and substrate specificity in embryos” (The Journal of Biological Chemistry, 2025).
